# In patent US4355025A, “Biologically active amides” (Burroughs Wellcome Co., priority 1975, dated 1982):
# Tested on: mice of the NZO strain (genetically obese, hyperglycaemic and hyperinsulinaemic)
# Experiment: APP given intraperitoneally to NZO mice: blood glucose, serum insulin, weight, oral Glucose Tolerance Test
# Assay type: in vivo
# Details: mean of APP-treated group, 1 μg i.p. 3 times a day; for Serum Insulin: Beef equivalent
# Text: It has now unexpectedly been found by the Applicants that these vertebrate pancreatic polypeptides (hereinafter collectively referred to as VPPs, which term should be understood to include such polypeptides of avian, amphibian, piscian, reptilian or mammalian origin) are as a class effective in lowering the concentration in the blood of both glucose and insulin when administered to a strain (NZO) of genetically obese, hyperglycaemic and hyperinsulinaemic mice. At the same time these treated mice lose weight as compared with untreated control animals and give normalized values in the oral Glucose Tolerance Test standard in the art.
# APP (Endocrinology 83, 1323 (1968)) (1 μg) in water (0.1 ml) was administered by intraperitoneal injection 3 times a day for 25 days to each of 5 male mice (age 6 weeks, weight 23 g) of the NZO strain (genetically obese, hyperglycaemic and hyperinsulinaemic). 5 Matched control animals each received plain water (0.1 ml) by the same route and according to the same schedule. The blood glucose and serum insulin levels were measured at the start and during the course of the experiment and the mean results for the APP-treated group are shown in Table 1. No change in these levels from the values on day 0, which were the same as in the treated group, occurred in the control group over the course of the experiment.
substance,measurement,setting,value
avian pancreatic polypeptide [APP],Serum Insulin,Day 0 (start),189 μU/ml
same,Blood glucose,"Day 0 (start), 5 male NZO mice",175 mg. %
same,Blood glucose,Day 5,162 mg. %
same,Serum Insulin,Day 10,99 μU/ml
same,Blood glucose,Day 15,154 mg. %
same,Serum Insulin,Day 20,47 μU/ml
same,Blood glucose,Day 25,136 mg. %
